Assay: Stability in whole blood, CD-1 mice
Type: in vitro ADME
Conditions: CD-1 mice whole blood, 5 μM, 37° C.
Description: Stabilities of the assay compound in whole blood of CD-1 mice, SD rats, beagle dogs and cynomolgus monkeys were assayed, respectively. On the day of the assay or the day before the assay, fresh whole blood from CD-1 mice, SD rats, beagle dogs, and cynomolgus monkeys was collected using anticoagulant EDTA-K2. Prior to the start of the assay, the whole blood was mixed with PBS in 1:1 (v: v) and the mixture was preheated in a 37° C. water bath for 10 to 20 minutes. 96-well incubation plates were prepared and named T0, T30, T60, […], respectively. In the corresponding incubation plates, including T0, T30, T60 and […] incubation plates, 2 μL of working solutions of the compound or the control compound were mixed with 98 μL of blank whole blood of mice, rats, canines, monkeys and human in duplicate. All samples were incubated in a 37° C. water bath. The final incubation concentration of the compound was 5 μM and the final incubation concentration of the control compound was 2 μM. At the end of incubation for each time point, the corresponding incubation plate was removed and 100 μL of ultrapure water was immediately added to the corresponding sample wells, and mixed well. 800 μL of a solution of 200 ng/mL tolbutamide and labetalol in acetonitrile was added to precipitate the protein. […] 150 μL of supernatant was taken out and analyzed by LC/MS/MS.

Question: With `C=C(F)C(=O)N1CCN(c2nc(OC[C@@]34CCCN3C[C@H](F)C4)nc3c2CO[C@H](c2c(F)c(N)cc(C)c2C(F)(F)F)C3)C[C@@H]1CC#N` [Compound of formula (I)] as the compound, how does the “Detection of assay compound content within 240 min” value read?
Answer: 117%

— US20250129102A1, “CRYSTAL FORM OF PYRIMIDINE HETEROCYCLIC COMPOUND AND PREPARATION METHOD THEREFOR” (D3 Bio (Wuxi) Co., Ltd., priority 2021, published 2025)
